Assay results reported in US20150057246A1, “SILYL-CONTAINING HETEROCYCLIC COMPOUNDS AND METHODS OF USE THEREOF FOR THE TREATMENT OF VIRAL DISEASES” (priority 2012, published 2015).
Read-outs that look alike come from different tables or passages of the source.

Legend:
HCV 1a replicon = assay: Cell-based HCV replicon assay (TaqMan), genotype 1a replicon; settings: HCV genotype 1a replicon cells, replicon RNA by real time PCR, day 3, EC90 = concentration for ΔCT=3.2 over baseline
Method in brief: (§1)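 Replicon cells seeded at 5000 cells/well with compound as 10 serial 2-fold dilutions (top 250 μM to 1 μM), 0.5% DMSO, 5% FBS, 3 days. NS5B replicon RNA quantified by multiplex TaqMan RT-PCR against GAPDH. EC50 = concentration giving ΔCT=1 over baseline; EC90 = ΔCT=3.2, from sigmoid fit.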

HCV 1b replicon = assay: Cell-based HCV replicon assay (TaqMan), genotype 1b replicon; settings: HCV genotype 1b replicon cells, replicon RNA by real time PCR, day 3, EC90 = concentration for ΔCT=3.2 over baseline
Procedure: Measurement of inhibition by compounds of the present invention was performed using the HCV replicon system. Several different replicons encoding different HCV genotypes or mutations were used. In addition, potency measurements were made using different formats of the replicon assay, including different ways of measurements and different plating formats. See Jan M. Vrolijk et al., A replicons-based bioassay for the measurement of interferons in patients with chronic hepatitis C, 110 J. VIROLOGICAL METHODS 201 (2003); Steven S. Carroll et al., Inhibition of Hepatitis C Virus RNA Replication by 2′-Modified Nucleoside Analogs, 278(14) J. BIOLOGICAL CHEMISTRY 11979 (2003). However, the underlying principles are common to all of these determinations, and are outlined below.
TaqMan®-Based Assay Protocol:
Compounds of the present invention were assayed for cell-based anti-HCV activity using the following protocol. Replicon cells were seeded at 5000 cells/well in 96-well collagen I-coated Nunc plates in the presence of the test compound. Various concentrations of test compound, typically in 10 serial 2-fold dilutions, were added to the assay mixture, with the starting concentration ranging from 250 μM to 1 μM. The final concentration of DMSO was 0.5%, fetal bovine serum was 5%, in the assay media. Cells were harvested on day 3 by the addition of 1× cell lysis buffer (Ambion cat #8721). The replicon RNA level was measured using real time PCR (TaqMan® assay). The amplicon was located in 5B. The PCR primers were: 5B.2F, ATGGACAGGCGCCCTGA (SEQ. ID NO. 1); 5B.2R, […] (SEQ. ID NO. 2); the probe sequence was FAM-labeled CACGCCATGCGCTGCGG (SEQ. ID NO. 3). GAPDH RNA was used as endogenous control and was amplified in the same reaction as NS5B (multiplex PCR) using primers and VIC-labeled probe recommended by the manufacturer (PE Applied Biosystem). The real-time […] reactions were run on ABI PRISM 7900HT Sequence Detection System using the following program: 48° C. for 30 minutes, 95° C. for 10 minutes, 40 cycles of 95° C. for 15 sec, 60° C. for 1 minute. The ΔCT values (CT5B-CTGAPDH) were plotted against the concentration of test compound and fitted to the sigmoid dose-response model using XLfit4 (MDL). EC50 was defined as the concentration of inhibitor necessary to achieve ΔCT=1 over the projected baseline; EC90 the concentration necessary to achieve ΔCT=3.2 over the baseline. Alternatively, to quantitate the absolute amount of replicon RNA, a standard curve was established by including serially diluted T7 transcripts of replicon RNA in the Taqman assay. All TaqMan® reagents were from PE Applied Biosystems. Such an assay procedure was described in detail in e.g. Malcolm et al., Antimicrobial Agents and Chemotherapy 50: 1013-1020 (2006).
HCV replicon EC50 assay data for various replicons and mutants was calculated for selected compounds of the present invention using this method and is provided in the tables above herein.

HCV 1a Y93H replicon = assay: Cell-based HCV replicon assay (TaqMan), 1a Y93H mutant replicon; settings: EC90 = concentration for ΔCT=3.2 over baseline
Method in brief: as §1

HCV 2b replicon = assay: Cell-based HCV replicon assay (TaqMan), genotype 2b replicon; settings: Hepatitis C virus, 72 h, read-out: 2b EC90, HCV genotype 2b replicon cells, replicon RNA by real time PCR, day 3; EC90 = concentration for ΔCT=3.2 over baseline
Method in brief: as §1

[1] = Hepatitis C virus, 72 h, read-out: 1a Y93H EC90, HCV 1a Y93H mutant replicon cells, replicon RNA by real time PCR, day 3

Structure (SMILES) | EC90 (HCV 1a replicon; Hepatitis C virus, 72 h) [nM] | EC90 (HCV 1b replicon; Hepatitis C virus, 72 h) [nM] | EC90 (HCV 1a Y93H replicon; [1]) [nM] | EC90 (HCV 2b replicon) [nM] | EC90 (HCV 1a replicon) [nM] | EC90 (HCV 1b replicon) [nM] | EC90 (HCV 1a Y93H replicon; read-out: 1a Y93H EC90, HCV 1a Y93H mutant replicon cells, replicon RNA by real time PCR, day 3) [nM]
COC(=O)N[C@@H](CC1CC1)C(=O)N1C[Si](C)(C)C[C@H]1c1nc2ccc3cc(-c4ccc(-c5cnc([C@@H]6CCCN6C(=O)[C@@H](NC(=O)OC)C(C)C)[nH]5)cc4)ccc3c2[nH]1 [Compound 77] | 0.56 | 0.03 | > 1000 | 221 | – | – | –
CCN(CC)[C@H](C(=O)N1C[Si](C)(C)C[C@H]1c1nc2ccc3cc(-c4ccc(-c5cnc([C@@H]6CCCN6C(=O)[C@@H](NC(=O)OC)C(C)C)[nH]5)cc4)ccc3c2[nH]1)c1ccccc1 [Compound 78] | 0.14 | 0.03 | 514 | 6.5 | – | – | –
COC(=O)N[C@H](C(=O)N1C[Si](C)(C)C[C@H]1c1nc(Cl)c(-c2ccc(-c3ccc4c(ccc5nc([C@@H]6CCCN6C(=O)[C@@H](NC(=O)OC)C(C)C)[nH]c54)c3)cc2)[nH]1)C(C)C [Compound 96] | 0.24 | 0.69 | 368 | 263 | – | – | –
COC(=O)N[C@H](C(=O)N1C[Si](C)(C)C[C@H]1c1nc2ccc3cc(-c4ccc(-c5cnc([C@@H]6C[C@H]7C[C@H]7N6C(=O)[C@@H](NC(=O)OC)C(C)C)[nH]5)cc4)ccc3c2[nH]1)C(C)C [Compound 105] | – | – | – | 301 | 0.26 | 0.02 | 605
COC(=O)N[C@H](C(=O)N1C[Si](C)(C)C[C@H]1c1nc2ccc3cc(-c4ccc(-c5nc(Cl)c([C@@H]6C[C@H]7C[C@H]7N6C(=O)[C@@H](NC(=O)OC)C(C)C)[nH]5)cc4)ccc3c2[nH]1)C(C)C [Compound 108] | 0.04 | 0.02 | 151 | 543 | – | – | –
COC(=O)N[C@H](C(=O)N1CCC[C@H]1c1ncc(-c2ccc3cc(-c4ccc5c(ccc6nc([C@@H]7C[Si](C)(C)CN7C(=O)[C@@H](NC(=O)OC)C(C)C)[nH]c65)c4)ccc3c2)[nH]1)C(C)C [Compound 112] | 0.046 | > 1 | > 100 | > 100 | – | – | –
COC(=O)N[C@H](C(=O)N1CCC[C@H]1c1ncc(-c2ccc3cc(-c4ccc5c(ccc6nc([C@@H]7C[Si](C)(C)CN7C(=O)[C@@H](NC(=O)OC)C7CC7)[nH]c65)c4)ccc3c2)[nH]1)C1CC1 [Compound 114] | 0.06 | > 1 | > 100 | > 100 | – | – | –
COC(=O)N[C@@H](C(=O)N1CCC[C@@H]1c1ncc(-c2ccc3cc(-c4ccc5c(ccc6nc([C@H]7C[Si](C)(C)CN7C(=O)OC(C)(C)C)[nH]c65)c4)ccc3c2)[nH]1)C(C)C [Compound 116] | > 1 | > 1 | > 100 | > 100 | – | – | –
COC(=O)NC(C(=O)N1C[Si](C)(C)C[C@H]1c1nc2ccc3cc(-c4ccc5cc(-c6cnc([C@@H]7CCCN7C(=O)[C@H](NC(=O)OC)C(C)C)[nH]6)ccc5c4)ccc3c2[nH]1)[C@@H](C)OC (stereo partly shown) [Compound 117] | 0.039 | > 1 | > 100 | > 100 | – | – | –
COC(=O)N[C@H](C(=O)N1C[Si](C)(C)C[C@@H]1c1nc2ccc3cc(-c4ccc5cc(-c6cnc([C@H]7CCCN7C(=O)[C@H](NC(=O)OC)C(C)C)[nH]6)ccc5c4)ccc3c2[nH]1)C1CCOCC1 [Compound 118] | 0.023 | > 1 | > 100 | > 100 | – | – | –
